# Measurements: PMC12827894, “Structure-guided design of picomolar-level macrocyclic TRPC5 channel inhibitors with antidepressant activity” (Acta Pharmaceutica Sinica. B, 2025)
# Assays:
# TRPC5 Q573A = biological target: T1, TRPC5 Q573A (Homo sapiens, UniProt Q9UL62, Q573A); assay: Inhibition of TRPC5 mutant Q573A; assay type: cell-based; conditions: TRPC5 Q573A vs wild type
# T1 construct: full-length wild-type or mutant TRPC5 was cloned into a pcDNA3.1 vector; expressed in transfected cells; host or cells: HEK293T
# 5-HTT = biological target: T2, 5-HTT (Homo sapiens, UniProt P31645); assay: SafetyOne44 panel: 5-HTT; assay type: cell-based; conditions: 10 μmol/L, read-out: Antagonist JDIC-127 @10 μmol/L
# T2 construct: purchased ICE Bioscience ICESTP™ SafetyOne44 Panel
# C57BL/6J mice = assay: CCK-4-induced anxiety model, elevated plus maze; assay type: in vivo; conditions: CCK-4 model, 10 mg/kg p.o.
# PDE4 D2 = biological target: T3, PDE4 D2 (Homo sapiens, UniProt Q08499); assay: biochemical; conditions: PDE4D2, 10 μmol/L; read-out: Antagonist JDIC-127 @10 μmol/L
# T3 construct: purchased ICE Bioscience ICESTP™ SafetyOne44 Panel
# 5-HT1A = biological target: T4, 5-HT1A (Homo sapiens, UniProt P08908); assay: cell-based; assay type: cell-based
# T4 construct: purchased ICE Bioscience ICESTP SafetyOne44 Panel
# TRPM3 = TRPM3 (Homo sapiens, UniProt Q9HCF6); assay: Patch-clamp selectivity, TRPM3; assay type: cell-based; conditions: 10 μmol/L
# Cav1.2 = biological target: T5, Cav1.2 (Homo sapiens, UniProt Q13936); assay type: cell-based; conditions: Cav1.2, 5 μmol/L
# T5 construct: ICE Bioscience ICESTP SafetyOne44 Panel
# β1 = biological target: T6, β1 (Homo sapiens, UniProt P08588); assay: SafetyOne44 panel: β1; assay type: cell-based
# T6 construct: purchased ICE Bioscience ICESTP™ SafetyOne44 Panel
# COX1 = COX1 (Homo sapiens, UniProt P23219)
# in vitro = in vitro ADME; conditions: not told
# Text: Table 1 Pharmacokinetic properties of JDIC-127. | column: ER; Papp (cm/s)
# H1 [1] = biological target: T7, H1 (Homo sapiens, UniProt P35367); assay: cell-based; conditions: read-out: Antagonist JDIC-127 @10 μmol/L
# [2] = system: 44 clinically safety-related targets
# H1 [3] = biological target: T7, H1; conditions: H1, agonist mode
# TRPC5 = biological target: T8, TRPC5 (Homo sapiens, UniProt Q9UL62); assay: cell-based
# T8 sequence (Q9UL62 1-973): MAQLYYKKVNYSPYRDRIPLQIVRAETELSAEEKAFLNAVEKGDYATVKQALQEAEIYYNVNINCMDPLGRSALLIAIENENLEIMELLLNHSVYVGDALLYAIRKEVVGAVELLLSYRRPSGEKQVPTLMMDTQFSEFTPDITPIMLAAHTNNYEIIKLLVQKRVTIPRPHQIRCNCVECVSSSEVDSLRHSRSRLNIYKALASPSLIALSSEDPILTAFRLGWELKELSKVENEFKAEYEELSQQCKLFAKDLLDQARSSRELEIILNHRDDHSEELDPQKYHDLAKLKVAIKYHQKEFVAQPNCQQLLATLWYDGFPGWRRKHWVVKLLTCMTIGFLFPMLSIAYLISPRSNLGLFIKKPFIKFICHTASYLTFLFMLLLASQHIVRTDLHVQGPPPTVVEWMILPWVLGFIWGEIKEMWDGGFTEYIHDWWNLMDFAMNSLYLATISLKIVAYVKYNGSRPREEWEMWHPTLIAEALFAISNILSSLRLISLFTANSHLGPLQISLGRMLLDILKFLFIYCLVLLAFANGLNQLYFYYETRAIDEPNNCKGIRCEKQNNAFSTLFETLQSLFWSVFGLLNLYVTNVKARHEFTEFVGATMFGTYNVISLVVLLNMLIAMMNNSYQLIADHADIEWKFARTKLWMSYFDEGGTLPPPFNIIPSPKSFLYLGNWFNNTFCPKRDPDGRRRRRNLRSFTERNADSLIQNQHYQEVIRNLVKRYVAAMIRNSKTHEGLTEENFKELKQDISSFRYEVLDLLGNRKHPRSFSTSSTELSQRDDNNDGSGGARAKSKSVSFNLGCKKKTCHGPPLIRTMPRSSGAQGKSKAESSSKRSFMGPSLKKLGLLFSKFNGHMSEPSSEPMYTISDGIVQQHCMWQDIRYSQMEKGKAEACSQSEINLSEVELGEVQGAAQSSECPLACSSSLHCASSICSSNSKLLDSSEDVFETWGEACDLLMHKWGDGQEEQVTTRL
# T7 sequence (P35367 whole entry): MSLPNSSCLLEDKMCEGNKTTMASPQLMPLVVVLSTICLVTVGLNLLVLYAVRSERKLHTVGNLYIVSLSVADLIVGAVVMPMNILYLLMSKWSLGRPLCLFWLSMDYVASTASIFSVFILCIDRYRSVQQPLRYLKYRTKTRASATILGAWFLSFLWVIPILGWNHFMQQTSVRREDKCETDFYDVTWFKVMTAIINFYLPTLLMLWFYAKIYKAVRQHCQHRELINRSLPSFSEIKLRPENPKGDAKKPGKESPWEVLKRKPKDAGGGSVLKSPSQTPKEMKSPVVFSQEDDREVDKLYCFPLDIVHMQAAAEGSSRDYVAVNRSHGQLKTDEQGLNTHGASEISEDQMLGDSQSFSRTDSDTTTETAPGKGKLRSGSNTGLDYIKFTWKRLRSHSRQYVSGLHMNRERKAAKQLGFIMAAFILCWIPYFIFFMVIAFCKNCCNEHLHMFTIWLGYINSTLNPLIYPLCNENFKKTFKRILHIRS
# T4 sequence (P08908 whole entry): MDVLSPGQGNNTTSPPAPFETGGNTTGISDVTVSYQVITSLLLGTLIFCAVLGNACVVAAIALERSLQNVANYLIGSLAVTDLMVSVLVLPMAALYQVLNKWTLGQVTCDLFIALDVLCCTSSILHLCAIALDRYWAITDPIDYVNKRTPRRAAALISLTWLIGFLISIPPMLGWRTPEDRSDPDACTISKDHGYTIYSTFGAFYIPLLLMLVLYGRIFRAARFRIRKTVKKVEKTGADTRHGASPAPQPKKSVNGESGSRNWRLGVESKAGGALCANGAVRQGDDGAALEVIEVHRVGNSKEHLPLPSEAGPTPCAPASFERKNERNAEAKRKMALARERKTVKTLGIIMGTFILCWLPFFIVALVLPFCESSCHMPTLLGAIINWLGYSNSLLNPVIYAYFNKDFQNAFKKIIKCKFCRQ
# T6 sequence (P08588 whole entry): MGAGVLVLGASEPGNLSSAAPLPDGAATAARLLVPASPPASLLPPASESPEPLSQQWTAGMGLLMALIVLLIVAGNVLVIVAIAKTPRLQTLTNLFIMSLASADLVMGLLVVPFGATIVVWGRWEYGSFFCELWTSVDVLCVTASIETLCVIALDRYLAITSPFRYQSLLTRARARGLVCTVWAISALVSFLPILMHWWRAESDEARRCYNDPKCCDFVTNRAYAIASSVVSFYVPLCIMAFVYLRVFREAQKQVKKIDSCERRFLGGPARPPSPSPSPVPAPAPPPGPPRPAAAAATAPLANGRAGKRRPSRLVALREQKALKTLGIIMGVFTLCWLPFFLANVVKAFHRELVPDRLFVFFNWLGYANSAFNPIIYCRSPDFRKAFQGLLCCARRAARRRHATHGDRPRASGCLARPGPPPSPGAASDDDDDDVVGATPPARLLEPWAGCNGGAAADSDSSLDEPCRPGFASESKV
# Sequence of TRPM3 (Q9HCF6 whole entry, species assumed): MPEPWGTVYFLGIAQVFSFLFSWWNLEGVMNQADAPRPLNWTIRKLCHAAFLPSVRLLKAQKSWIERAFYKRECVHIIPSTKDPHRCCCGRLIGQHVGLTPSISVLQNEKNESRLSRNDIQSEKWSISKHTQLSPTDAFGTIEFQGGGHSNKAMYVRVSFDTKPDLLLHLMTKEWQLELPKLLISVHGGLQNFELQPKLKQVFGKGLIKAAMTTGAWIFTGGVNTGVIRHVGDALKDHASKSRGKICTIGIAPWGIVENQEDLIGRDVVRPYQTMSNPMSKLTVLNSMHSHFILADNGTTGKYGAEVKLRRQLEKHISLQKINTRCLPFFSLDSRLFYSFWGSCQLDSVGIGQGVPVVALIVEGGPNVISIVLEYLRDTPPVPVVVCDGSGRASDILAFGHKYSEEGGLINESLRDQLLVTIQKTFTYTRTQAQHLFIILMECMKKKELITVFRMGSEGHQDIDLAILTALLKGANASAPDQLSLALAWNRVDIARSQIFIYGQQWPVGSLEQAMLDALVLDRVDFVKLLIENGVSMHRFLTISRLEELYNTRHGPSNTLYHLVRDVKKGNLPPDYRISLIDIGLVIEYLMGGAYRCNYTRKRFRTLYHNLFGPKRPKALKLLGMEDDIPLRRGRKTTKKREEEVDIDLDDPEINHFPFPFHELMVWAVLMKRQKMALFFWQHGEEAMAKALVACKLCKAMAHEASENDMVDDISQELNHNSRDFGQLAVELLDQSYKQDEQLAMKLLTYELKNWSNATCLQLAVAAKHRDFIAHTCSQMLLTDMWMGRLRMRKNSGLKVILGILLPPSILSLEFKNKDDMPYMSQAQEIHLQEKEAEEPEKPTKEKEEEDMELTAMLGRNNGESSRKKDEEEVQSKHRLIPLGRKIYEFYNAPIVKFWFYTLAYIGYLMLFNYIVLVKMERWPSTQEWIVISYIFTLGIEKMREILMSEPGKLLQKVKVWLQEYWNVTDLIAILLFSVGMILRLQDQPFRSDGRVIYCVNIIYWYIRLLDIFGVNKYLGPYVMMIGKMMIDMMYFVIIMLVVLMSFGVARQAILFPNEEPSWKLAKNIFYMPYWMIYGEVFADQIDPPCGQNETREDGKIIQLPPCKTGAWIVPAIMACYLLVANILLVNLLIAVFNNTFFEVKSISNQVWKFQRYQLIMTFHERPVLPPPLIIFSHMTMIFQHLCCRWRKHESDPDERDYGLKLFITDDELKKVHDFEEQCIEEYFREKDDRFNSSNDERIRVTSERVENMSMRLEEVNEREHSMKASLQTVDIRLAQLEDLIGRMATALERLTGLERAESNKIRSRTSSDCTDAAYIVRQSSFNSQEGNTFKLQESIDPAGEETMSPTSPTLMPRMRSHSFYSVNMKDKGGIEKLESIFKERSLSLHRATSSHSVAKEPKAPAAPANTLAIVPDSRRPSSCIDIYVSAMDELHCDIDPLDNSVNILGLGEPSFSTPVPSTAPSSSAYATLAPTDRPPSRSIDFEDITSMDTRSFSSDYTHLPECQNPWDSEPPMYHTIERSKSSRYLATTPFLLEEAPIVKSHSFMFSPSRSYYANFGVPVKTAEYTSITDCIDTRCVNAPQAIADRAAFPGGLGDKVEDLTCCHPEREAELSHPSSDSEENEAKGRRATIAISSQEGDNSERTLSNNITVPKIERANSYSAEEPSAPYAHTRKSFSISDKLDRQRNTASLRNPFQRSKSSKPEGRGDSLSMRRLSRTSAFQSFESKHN
# T2 sequence (P31645 whole entry): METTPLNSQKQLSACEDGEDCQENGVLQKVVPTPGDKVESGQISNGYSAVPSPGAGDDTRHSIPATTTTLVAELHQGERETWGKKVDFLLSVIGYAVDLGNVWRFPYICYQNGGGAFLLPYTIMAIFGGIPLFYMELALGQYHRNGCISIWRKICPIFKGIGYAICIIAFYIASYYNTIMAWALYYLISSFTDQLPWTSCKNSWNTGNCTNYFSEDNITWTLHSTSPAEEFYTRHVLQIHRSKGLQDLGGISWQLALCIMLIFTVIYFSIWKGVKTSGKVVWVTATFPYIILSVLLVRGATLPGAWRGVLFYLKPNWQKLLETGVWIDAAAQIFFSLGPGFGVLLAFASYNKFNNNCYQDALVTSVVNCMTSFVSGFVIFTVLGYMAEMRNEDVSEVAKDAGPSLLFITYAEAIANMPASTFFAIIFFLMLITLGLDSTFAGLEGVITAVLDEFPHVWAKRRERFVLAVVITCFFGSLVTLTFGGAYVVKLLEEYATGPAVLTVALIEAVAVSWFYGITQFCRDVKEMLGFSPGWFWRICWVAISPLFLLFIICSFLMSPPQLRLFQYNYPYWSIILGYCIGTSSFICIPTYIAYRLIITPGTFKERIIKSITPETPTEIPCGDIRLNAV
# T1 sequence (Q9UL62 whole entry Q573A): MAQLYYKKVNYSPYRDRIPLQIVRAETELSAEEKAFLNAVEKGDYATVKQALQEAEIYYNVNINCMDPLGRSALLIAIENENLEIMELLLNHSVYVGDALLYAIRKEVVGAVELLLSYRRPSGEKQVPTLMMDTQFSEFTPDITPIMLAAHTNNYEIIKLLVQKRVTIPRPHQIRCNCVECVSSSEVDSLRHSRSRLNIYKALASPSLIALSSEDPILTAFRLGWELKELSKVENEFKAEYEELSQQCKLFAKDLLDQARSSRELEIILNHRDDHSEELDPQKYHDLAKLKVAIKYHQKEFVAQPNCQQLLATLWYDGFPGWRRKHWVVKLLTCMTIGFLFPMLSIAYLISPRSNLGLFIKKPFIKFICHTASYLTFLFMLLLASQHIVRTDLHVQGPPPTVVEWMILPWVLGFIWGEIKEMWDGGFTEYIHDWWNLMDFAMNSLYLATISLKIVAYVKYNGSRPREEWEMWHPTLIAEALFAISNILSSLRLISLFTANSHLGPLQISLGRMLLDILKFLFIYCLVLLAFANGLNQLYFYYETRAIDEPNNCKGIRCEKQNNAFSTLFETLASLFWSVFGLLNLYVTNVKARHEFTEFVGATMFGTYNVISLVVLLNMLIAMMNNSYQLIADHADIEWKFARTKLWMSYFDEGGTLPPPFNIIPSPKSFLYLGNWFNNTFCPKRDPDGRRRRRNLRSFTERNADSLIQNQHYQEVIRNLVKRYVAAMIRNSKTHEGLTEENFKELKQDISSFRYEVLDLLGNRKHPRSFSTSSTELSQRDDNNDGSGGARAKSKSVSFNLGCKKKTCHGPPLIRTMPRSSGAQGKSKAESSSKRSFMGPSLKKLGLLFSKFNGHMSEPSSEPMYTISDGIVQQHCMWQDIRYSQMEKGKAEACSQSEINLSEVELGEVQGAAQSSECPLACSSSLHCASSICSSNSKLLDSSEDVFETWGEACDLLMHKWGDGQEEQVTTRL
smiles,measurement,setting,value
O=c1c2c3nc(n2Cc2ccc(Cl)cc2)Oc2ccc(F)c(c2)OCCCCCCn3c(=O)n1CCCO [JDIC-127],effect of mutation on inhibitory potency of JDIC-127,TRPC5 Q573A,significantly diminished
same,inhibition at 10 µM,5-HTT,-31.8%
same,"percentage of entries in the open arms, EPM",C57BL/6J mice,significantly increased
same,inhibition at 10 µM,PDE4 D2,11.4%
same,Agonist JDIC-127 @10 μmol/L,5-HT1A; agonist mode,–1.59%
same,inhibition at 10 µM,"5-HT1A; antagonist mode, 10 μmol/L, read-out: Antagonist JDIC-127 @10 μmol/L",-6.7%
same,inhibition at 10 µM,TRPM3,< 33%
same,Antagonist JDIC-127 @5 μmol/L,Cav1.2,20.23%
same,Agonist JDIC-127 @10 μmol/L,"β1; β1, agonist mode",–1.87%
same,inhibition at 10 µM,"β1; β1, antagonist mode, 10 μmol/L, read-out: Antagonist JDIC-127 @10 μmol/L",1.84%
same,Antagonist JDIC-127 @10 μmol/L,COX1,–5.92%
same,ER,in vitro,1.45
same,Papp,in vitro,1.51 ×10⁻⁶ cm/s
same,inhibition at 10 µM,H1 [1],-3.39%
same,effect on the 44 safety targets,[2],no significant inhibitory or stimulatory effects
same,Agonist JDIC-127 @10 μmol/L,H1 [3],3.21%
same,IC50,"TRPC5; HEK293T, 100 nmol/L Englerin A, read-out: IC50, inhibition of TRPC5, calcium flux assay",0.066 nM
same,inhibition of TRPC5 calcium influx,TRPC5; at concentrations of 1.4 nmol/L or higher,More than 80%
same,fold increase in activity (vs compound 6),"TRPC5; calcium flux, SAR",approximately 15 fold
